Experimental data: patent publication EP1137645B1, “ALPHA-METHYLBENZYL-CONTAINING THIOUREA INHIBITORS OF HERPES VIRUSES CONTAINING A […] GROUP” (Wyeth, priority 1998, dated 2000)
In brackets after ≈: the same amount, converted by molar mass. Read-outs that look alike come from different tables or passages of the source.

What was measured:
[1] = tested on: HCMV recombinant mutant virus whose genome contains the prokaryotic beta-glucuronidase gene; experiment: microbe, parasite or virus in culture; type: cell-based, human cytomegalovirus; settings: Human betaherpesvirus 5, Fibroblast, read-out: IC50 ug/ml HCMV, HCMV, human foreskin fibroblasts
Summary of the method: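 Human foreskin fibroblasts infected with HCMV recombinant carrying beta-glucuronidase under a viral promoter (e.g. RV145) in presence of compound. At 96 h post-infection, lysates assayed for beta-glucuronidase by colorimetric or fluorogenic substrate as replication readout; IC50 estimated from varying compound amounts.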

HSV- I = experiment: HSV antiviral (ELISA) assay; type: cell-based; settings: read-out: IC50 (ug/ml) HSV
Summary of the method: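 Vero cells in DMEM with 2% FBS treated with compound 30 min before HSV-1 infection (MOI 0.006), then incubated ~24 h at 37°C. Viral replication measured by ELISA against glycoprotein D with β-galactosidase-linked secondary and fluorogenic substrate (ex 365/em 450 nm); IC50 relative to untreated fluorescence.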

VZV strain Ellen = experiment: VZV antiviral (ELISA) assay; type: cell-based; settings: Human alphaherpesvirus 3, HFF; for inhibition at 10 µg/mL: read-out: % inhibition 10 ug/ml VZV
Summary of the method: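 HFF cells infected with VZV Ellen at multiplicity below 0.1 overnight, then mixed infected/uninfected cells seeded with compound in DMEM/2% FBS and incubated three days at 37°C, 5% CO2.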

## COc1cc(OC)c(NC(=S)Nc2ccc(NC(=O)c3cccc(C(=O)O)c3)cc2)cc1Cl [Example 209, N-{4-[3-(5-Chloro-2,4-dimethoxy-phenyl)-thioureido]-phenyl}-isophthalamic acid]
[1]
  IC50: > 50 µg/mL
HSV- I; HSV- I, Vero cells, ELISA
  IC50: > 50 µg/mL
VZV strain Ellen
  inhibition at 10 µg/mL: 22%
VZV strain Ellen; read-out: IC50 (ug/ml) VZV
  IC50: > 10 µg/mL

## COc1cc(OC)c(NC(=S)Nc2ccc(NC(=O)c3cccc(OCc4ccccc4)c3)cc2)cc1Cl [Example 210, 3-Benzyloxy-N-{4-[3-(5-chloro-2,4-dimethoxy-phenyl)-thioureido]-phenyl}-benzamide]
[1]
  IC50: > 10 µg/mL
HSV- I; HSV- I, Vero cells, ELISA
  IC50: 5 µg/mL (≈ 9.12 µM)
VZV strain Ellen
  inhibition at 10 µg/mL: 14%
VZV strain Ellen; read-out: IC50 (ug/ml) VZV
  IC50: > 10 µg/mL

## CCCCOc1cccc(C(=O)Nc2ccc(NC(=S)Nc3cc(Cl)c(OC)cc3OC)cc2)c1 [Example 219, 3-Butoxy-N-{4-[3-(5-chloro-2,4-dimethoxy-phenyl)-thioureido]-phenyl}-benzamide]
[1]
  IC50: > 10 µg/mL
HSV- I; HSV- I, Vero cells, ELISA
  IC50: 2.5 µg/mL (≈ 4.86 µM)
VZV strain Ellen
  inhibition at 10 µg/mL: 30%
VZV strain Ellen; read-out: IC50 (ug/ml) VZV
  IC50: > 10 µg/mL

## COc1cc(OC)c(NC(=S)Nc2ccc(NC(=O)c3ccccc3[S+](C)[O-])cc2)cc1Cl (stereo not drawn) [Example 220, N-{4-[3-(5-Chloro-2,4-dimethoxy-phenyl)-thioureido]-phenyl}-2-methane-sulfinyl-benzamide]
[1]
  IC50: > 10 µg/mL
HSV- I; Vero
  IC50: > 10 µg/mL
VZV strain Ellen
  inhibition at 10 µg/mL: 35%
VZV strain Ellen; read-out: IC50 (ug/ml) VZV, VZV strain Ellen, HFF cells, ELISA
  IC50: > 10 µg/mL

## CCOC(=O)COc1cccc(C(=O)Nc2ccc(NC(=S)Nc3cc(Cl)c(OC)cc3OC)cc2)c1 [Example 221, (3-{4-[3-(5-Chloro-2,4-dimethoxy-phenyl)-thioureido]-phenylcarbamoyl}-phenoxy)-acetic acid ethyl ester]
[1]
  IC50: > 10 µg/mL
HSV- I; HSV- I, Vero cells, ELISA
  IC50: > 10 µg/mL
VZV strain Ellen
  inhibition at 10 µg/mL: 17%
VZV strain Ellen; read-out: IC50 (ug/ml) VZV
  IC50: > 10 µg/mL

## COc1cc(OC)c(NC(=S)Nc2ccc(NC(=O)c3cccc(OCC(=O)O)c3)cc2)cc1Cl [Example 222, (3-{4-[3-(5-Chloro-2,4-dimethoxy-phenyl)-thioureido]-phenylcarbamoyl}-phenoxy)-acetic acid]
[1]
  IC50: > 50 µg/mL
HSV- I; HSV- I, Vero cells, ELISA
  IC50: > 50 µg/mL
VZV strain Ellen
  inhibition at 10 µg/mL: 17%
VZV strain Ellen; read-out: IC50 (ug/ml) VZV
  IC50: > 10 µg/mL

## Cc1ccc(NC(=S)Nc2ccc(NC(=O)c3ccccc3F)cc2)cc1Cl [Example 231, N-{4-[3-(3-Chloro-4-methyl-phenyl)-thioureido]-phenyl}-2-fluoro-benzamide]
[1]
  IC50: > 10 µg/mL
HSV- I; HSV- I, Vero cells, ELISA
  IC50: 0.5 µg/mL (≈ 1.21 µM)
VZV strain Ellen
  inhibition at 10 µg/mL: 11%
VZV strain Ellen; read-out: IC50 (ug/ml) VZV
  IC50: > 10 µg/mL

## COc1cccc(C(=O)Nc2ccc(NC(=S)Nc3ccc(C)c(Cl)c3)cc2)c1 [Example 232, N-{4-[3-(3-Chloro-4-methyl-phenyl)-thioureido]-phenyl}-3-methoxy-benzamide]
[1]
  IC50: > 10 µg/mL
HSV- I; HSV- I, Vero cells, ELISA
  IC50: 1 µg/mL (≈ 2.35 µM)
VZV strain Ellen
  inhibition at 10 µg/mL: 21%
VZV strain Ellen; read-out: IC50 (ug/ml) VZV
  IC50: > 10 µg/mL

## Cc1ccc(NC(=S)Nc2ccc(NC(=O)c3ccccc3C)cc2)cc1Cl [Example 234, N-{4-[3-(3-Chloro-4-methyl-phenyl)-thioureido]-phenyl}-2-methyl-benzamide]
[1]
  IC50: 1 µg/mL (≈ 2.44 µM)
HSV- I; HSV- I, Vero cells, ELISA
  IC50: 0.2 µg/mL (≈ 0.488 µM)
VZV strain Ellen
  inhibition at 10 µg/mL: 68%
VZV strain Ellen; read-out: IC50 (ug/ml) VZV
  IC50: > 10 µg/mL

## Cc1ccc(NC(=S)Nc2ccc(NC(=O)c3c(F)cccc3F)cc2)cc1Cl [Example 235, N-{4-[3-(3-Chloro-4-methyl-phenyl)-thioureido]-phenyl}-2,6-difluoro-benzamide]
[1]
  IC50: > 10 µg/mL
HSV- I; HSV- I, Vero cells, ELISA
  IC50: 0.2 µg/mL (≈ 0.463 µM)
VZV strain Ellen
  inhibition at 10 µg/mL: 50%
VZV strain Ellen; read-out: IC50 (ug/ml) VZV
  IC50: > 10 µg/mL

## CN(c1ccc(NC(=S)Nc2ccc(NC(=O)c3ccccc3F)cc2)cc1Cl)C1CCCCC1 [Example 238, N-(4-{3-[3-Chloro-4-(cyclohexyl-methyl-amino)-phenyl]-thioureido}-phenyl)-2-fluoro-benzamide]
[1]
  IC50: > 10 µg/mL
HSV- I; HSV- I, Vero cells, ELISA
  IC50: > 10 µg/mL
VZV strain Ellen
  inhibition at 10 µg/mL: 38%
VZV strain Ellen; read-out: IC50 (ug/ml) VZV
  IC50: > 10 µg/mL

## O=C(Nc1ccc(NC(=S)Nc2ccc(Cl)c(C(F)(F)F)c2)cc1)c1ccccc1F [Example 244, N-{4-[3-(4-Chloro-3-trifluoromethyl-phenyl)-thioureido]-phenyl}-2-fluoro-benzamide]
[1]
  IC50: > 10 µg/mL
HSV- I; HSV- I, Vero cells, ELISA
  IC50: > 10 µg/mL
VZV strain Ellen
  inhibition at 10 µg/mL: 18%
VZV strain Ellen; read-out: IC50 (ug/ml) VZV
  IC50: > 10 µg/mL

## Cc1ccccc1C(=O)Nc1ccc(NC(=S)Nc2ccc(N(C)C3CCCCC3)c(Cl)c2)cc1 [Example 247, N-(4-{3-[3-Chloro-4-(cyclohexyl-methyl-amino)-phenyl]-thioureido}-phenyl)-2-methyl-benzamide]
[1]
  IC50: > 10 µg/mL
HSV- I; HSV- I, Vero cells, ELISA
  IC50: > 10 µg/mL
VZV strain Ellen
  inhibition at 10 µg/mL: 74%
VZV strain Ellen; read-out: IC50 (ug/ml) VZV
  IC50: 5 µg/mL (≈ 9.86 µM)

## CN(c1ccc(NC(=S)Nc2ccc(NC(=O)c3c(F)cccc3F)cc2)cc1Cl)C1CCCCC1 [Example 248, N-(4-{3-[3-Chloro-4-(cyclohexyl-methyl-amino)-phenyl]-thioureido}-phenyl)-2,6-difluoro-benzamide]
[1]
  IC50: 2 µg/mL (≈ 3.78 µM)
HSV- I; HSV- I, Vero cells, ELISA
  IC50: > 10 µg/mL
VZV strain Ellen
  inhibition at 10 µg/mL: 96%
VZV strain Ellen; read-out: IC50 (ug/ml) VZV
  IC50: 2 µg/mL (≈ 3.78 µM)

## COc1cccc(C(=O)Nc2ccc(NC(=S)Nc3ccc(N(C)C4CCCCC4)c(Cl)c3)cc2)c1 [Example 250, N-(4-{3-[3-Chloro-4-(cyclohexyl-methyl-amino)-phenyl]-thioureido}-phenyl)-3-methoxy-benzamide]
[1]
  IC50: > 10 µg/mL
HSV- I; HSV- I, Vero cells, ELISA
  IC50: > 10 µg/mL
VZV strain Ellen
  inhibition at 10 µg/mL: 42%
VZV strain Ellen; read-out: IC50 (ug/ml) VZV
  IC50: > 10 µg/mL

## COc1cc(OC)c(NC(=S)Nc2ccc(NC(=O)c3cccc(OC(C)=O)c3)cc2)cc1Cl [Example 253, Acetic acid 3-{4-[3-(5-chloro-2,4-dimethoxy-phenyl)-thioureido]-phenyl-carbamoyl}-phenyl ester]
[1]
  IC50: 8 µg/mL (≈ 16 µM)
HSV- I; HSV- I, Vero cells, ELISA
  IC50: 1.2 µg/mL (≈ 2.4 µM)
VZV strain Ellen
  inhibition at 10 µg/mL: 100%
VZV strain Ellen; read-out: IC50 (ug/ml) VZV
  IC50: 6 µg/mL (≈ 12 µM)

## COc1cc(OC)c(NC(=S)Nc2ccc(NC(=O)c3cccc(O)c3)cc2)cc1Cl [Example 254, N-{4-[3-(5-Chloro-2,4-dimethoxy-phenyl)-thioureido]-phenyl}-3-hydroxy-benzamide]
[1]
  IC50: 4 µg/mL (≈ 8.73 µM)
HSV- I; HSV- I, Vero cells, ELISA
  IC50: 0.9 µg/mL (≈ 1.97 µM)
VZV strain Ellen
  inhibition at 10 µg/mL: 110%
VZV strain Ellen; read-out: IC50 (ug/ml) VZV
  IC50: 4 µg/mL (≈ 8.73 µM)

## COc1cc(OC)c(NC(=S)Nc2ccc(NC(=O)c3cccc4c3OCO4)cc2)cc1Cl [Example 255, Benzo[1,3]dioxole-4-carboxylic acid {4-[3-(5-chloro-2,4-dimethoxy-phenyl)-thioureido]-phenyl}-amide]
[1]
  IC50: > 10 µg/mL
HSV- I; HSV- I, Vero cells, ELISA
  IC50: 1.2 µg/mL (≈ 2.47 µM)
VZV strain Ellen
  inhibition at 10 µg/mL: 0%
VZV strain Ellen; read-out: IC50 (ug/ml) VZV
  IC50: > 10 µg/mL

## COc1cc(OC)c(NC(=S)Nc2ccc(NC(=O)c3cccc(OC(F)(F)F)c3)cc2)cc1Cl [Example 256, N-{4-[3-(5-Chloro-2,4-dimethoxy-phenyl)-thioureido]-phenyl}-3-trifluoro-methoxy-benzamide]
[1]
  IC50: 9 µg/mL (≈ 17.1 µM)
HSV- I; HSV- I, Vero cells, ELISA
  IC50: 2 µg/mL (≈ 3.8 µM)
VZV strain Ellen
  inhibition at 10 µg/mL: 15%
VZV strain Ellen; read-out: IC50 (ug/ml) VZV
  IC50: > 10 µg/mL

## COc1cc(OC)c(NC(=S)Nc2ccc(NC(=O)c3cccc(OCCN(C)C)c3)cc2)cc1Cl [Example 257, N-{4-[3-(5-Chloro-2,4-dimethoxy-phenyl)-thioureido]-phenyl}-3-(2-dimethylamino-ethoxy)-benzamide]
[1]
  IC50: 7 µg/mL (≈ 13.2 µM)
HSV- I; HSV- I, Vero cells, ELISA
  IC50: 2.5 µg/mL (≈ 4.73 µM)
VZV strain Ellen
  inhibition at 10 µg/mL: 105%
VZV strain Ellen; read-out: IC50 (ug/ml) VZV
  IC50: 2.5 µg/mL (≈ 4.73 µM)

## COc1cc(OC)c(NC(=S)Nc2ccc(NC(=O)c3cccc(OCCN4CCOCC4)c3)cc2)cc1Cl [Example 258, N-{4-[3-(5-Chloro-2,4-dimethoxy-phenyl)-thioureido]-phenyl}-3-(2-morpholin-4-yl-ethoxy)-benzamide]
[1]
  IC50: 5 µg/mL (≈ 8.76 µM)
HSV- I; HSV- I, Vero cells, ELISA
  IC50: 1.5 µg/mL (≈ 2.63 µM)
VZV strain Ellen
  inhibition at 10 µg/mL: 92%
VZV strain Ellen; read-out: IC50 (ug/ml) VZV
  IC50: 1.5 µg/mL (≈ 2.63 µM)
